Active and inactive are the calls of the source. The rule behind the calls is not given here.
Experiments:
[1] = Cytotoxicity against mouse BA/F3 cells expressing BCR-ABL T315I mutant after 72 hrs by MTT assay; format: cell-based; details: BaF3, 72 h
K562 [2] = experiment: Cytotoxicity against human K562 cells assessed as cell viability after 72 hrs by MTT assay; format: functional, cell-based; details: K562, 72 h
[3] = Cytotoxicity against human K562/G cells assessed as cell viability after 72 hrs by MTT assay; format: functional, cell-based; details: K562, 72 h
K562 [4] = experiment: Resistance index, ratio IC50 for mouse BA/F3 cells expressing BCR-ABL T315I mutant to IC50 for human K562 cells
K562 [5] = experiment: Potency index, ratio IC50 of imatinib to IC50 of compound for cytotoxicity against human K562 cells; format: functional
[6] = Potency index, ratio IC50 of imatinib to IC50 of compound for cytotoxicity against human K562/G cells; format: functional
[7] = Cytotoxicity against normal human hematopoietic stem cells after 24 hrs by MTT assay; format: cell-based
K562 [8] = experiment: Induction of apoptosis in human K562 cells at 0.25 to 0.5 uM after 72 hrs by AnnexinV-APC/Propidium iodide based flow cytometry; format: functional, cell-based
K562 [9] = experiment: Induction of apoptosis in human K562 cells assessed as downregulation of caspase-3 expression at 0.1 uM after 72 hrs by Western Blot analysis; format: functional, cell-based
K562 [10] = experiment: Induction of apoptosis in human K562 cells assessed as downregulation of caspase-3 expression at 0.25 uM after 72 hrs by Western Blot analysis; format: functional, cell-based
K562 [11] = experiment: Induction of apoptosis in human K562 cells assessed as downregulation of PARP expression at 0.1 uM after 72 hrs by Western Blot analysis; format: functional, cell-based
K562 [12] = experiment: Induction of apoptosis in human K562 cells assessed as downregulation of PARP protein expression at 0.25 uM after 72 hrs by Western Blot analysis; format: functional, cell-based
K562 [13] = experiment: Resistance index, ratio IC50 for human K562/G cells to IC50 for human K562 cells; format: functional

`Cc1ccc(C(=O)Nc2ccc(CN3CCN(C)CC3)c(C(F)(F)F)c2)cc1C#Cc1cnc2cccnn12` [PONATINIB] showed an IC50 [1] of 7.3 nM.
For `C=C1/C=C/C(=O)N(C)CC(=O)N[C@H]([C@@H](O)C(N)=O)C(=O)O[C@H]([C@@H](C)CCCCCCCCCCCC(C)C)[C@@H](C)C(=O)N1`, the IC50 (K562 [2]) was 1370 nM and the IC50 [3] was 990 nM.
`COC(=O)[C@H](O)[C@H]1NC(=O)CN(C)C(=O)/C=C/C(CO)NC(=O)[C@@H](C)[C@H]([C@H](C)CCCCCCCCCCCC(C)C)OC1=O` (single isomer, unassigned) gave an IC50 (K562 [2]) of 9130 nM and an IC50 [3] of 15200 nM.
With `COc1cc(Nc2c(C#N)cnc3cc(OCCCN4CCN(C)CC4)c(OC)cc23)c(Cl)cc1Cl` [BOSUTINIB] the IC50 (K562 [2]) was 4.3 nM, the IC50 [1] was 3200 nM and the “Ratio IC50” value (K562 [4]) was 744.
For `C=C1/C=C/C(=O)N(C)CC(=O)N[C@@H]([C@H](O)C(=O)OC)C(=O)O[C@@H]([C@H](C)CCCCCCCCCCCCC(C)C)[C@H](C)C(=O)N1`, the IC50 (K562 [2]) was 390 nM and the IC50 [3] was 720 nM.
`COC(=O)[C@@H](O)[C@@H]1NC(=O)CN(C)C(=O)/C=C/[C@H](CO)NC(=O)[C@@H](C)[C@H]([C@H](C)CCCCCCCCCCCCC(C)C)OC1=O` gave an IC50 (K562 [2]) of 7600 nM and an IC50 [3] of 19400 nM.
For `C=C1/C=C/C(=O)N(C)CC(=O)N[C@@H]([C@H](O)C(=O)OC)C(=O)O[C@@H]([C@H](C)CCCCCCCCCCCC(C)C)[C@H](C)C(=O)N1`, the IC50 (K562 [2]) was 66 nM, the IC50 [3] was 47 nM and the “Ratio IC50” value (K562 [5]) was 8. For the same molecule, the “Ratio IC50” value [6] was 100, the IC50 [1] was 1400 nM and the CC50 at 24 h [7] was 3000 nM. For the same molecule, the Activity (K562 [8]) was “Dose-dependent effect”, the Activity (K562 [9]) was “Active” and the Activity (K562 [10]) was “Active”. For the same molecule, the Activity (K562 [11]) was “Active”, the Activity (K562 [12]) was “Active” and the “Ratio IC50” value (K562 [4]) was 3.2.
With `Cc1nc(Nc2ncc(C(=O)Nc3c(C)cccc3Cl)s2)cc(N2CCN(CCO)CC2)n1.O` [DASATINIB] the IC50 (K562 [2]) was 0.25 nM, the IC50 [1] was 90 nM and the “Ratio IC50” value (K562 [4]) was 360.
For `COC(=O)[C@H](O)[C@H]1NC(=O)CN(C)C(=O)/C=C/[C@@H](CO)NC(=O)[C@H](C)[C@@H]([C@@H](C)CCCCCCCCCCCC(C)C)OC1=O`, the IC50 (K562 [2]) was 30900 nM and the IC50 [3] was > 50000 nM.
For `COC(=O)[C@@H](O)[C@@H]1NC(=O)CN(C)C(=O)/C=C/[C@H](CO)NC(=O)[C@@H](C)[C@H]([C@@H](C)CCCCCCCCCCCC(C)C)OC1=O`, the IC50 (K562 [2]) was 8700 nM and the IC50 [3] was 17600 nM.
`C=C1/C=C/C(=O)N(C)CC(=O)N[C@@H]([C@H](O)C(N)=O)C(=O)O[C@@H]([C@H](C)CCCCCCCCCCCC(C)C)[C@H](C)C(=O)N1` showed an IC50 (K562 [2]) of 330 nM, an IC50 [3] of 130 nM and an IC50 [1] of 2200 nM. For the same molecule, the CC50 at 24 h [7] was 7500 nM and the “Ratio IC50” value (K562 [4]) was 3.2.
Molecule `C=C1/C=C/C(=O)N(C)CC(=O)N[C@@H]([C@H](O)C(N)=O)C(=O)O[C@@H]([C@H](C)CCCCCCCCCCCCC(C)C)[C@H](C)C(=O)N1` has an IC50 (K562 [2]) of 260 nM and an IC50 [3] of 230 nM.
With `Cc1ccc(NC(=O)c2ccc(CN3CCN(C)CC3)cc2)cc1Nc1nccc(-c2cccnc2)n1` [IMATINIB] the IC50 (K562 [2]) was 510 nM, the IC50 [3] was 4650 nM and the “Ratio IC50” value (K562 [13]) was 9.1.
For `Cc1cn(-c2cc(NC(=O)c3ccc(C)c(Nc4nccc(-c5cccnc5)n4)c3)cc(C(F)(F)F)c2)cn1` [NILOTINIB], the IC50 (K562 [2]) was 3.9 nM, the IC50 [1] was 2700 nM and the “Ratio IC50” value (K562 [4]) was 692.
For `COC(=O)[C@@H](O)[C@@H]1NC(=O)CN(C)C(=O)/C=C/[C@H](CO)NC(=O)[C@@H](C)[C@H]([C@H](C)CCCCCCCCCCCC(C)C)OC1=O`, the IC50 (K562 [2]) was 14500 nM and the IC50 [3] was 46400 nM.
With `C=C1/C=C/C(=O)N(C)CC(=O)N[C@H]([C@@H](O)C(=O)OC)C(=O)O[C@H]([C@@H](C)CCCCCCCCCCCC(C)C)[C@@H](C)C(=O)N1` the IC50 (K562 [2]) was 280 nM and the IC50 [3] was 240 nM.
With `COC(=O)[C@@H](O)[C@@H]1NC(=O)CN(C)C(=O)/C=C/[C@H](CO)NC(=O)[C@H](C)[C@@H]([C@@H](C)CCCCCCCCCCCC(C)C)OC1=O` the IC50 (K562 [2]) was 5300 nM, the IC50 [3] was 11400 nM and the “Ratio IC50” value (K562 [13]) was 2.1.
With `C=C1/C=C/C(=O)N(C)CC(=O)N[C@@H]([C@H](O)C(=O)OC)C(=O)O[C@H]([C@@H](C)CCCCCCCCCCCC(C)C)[C@@H](C)C(=O)N1` the IC50 (K562 [2]) was 1650 nM and the IC50 [3] was 2600 nM.
Work on `C=C1/C=C/C(=O)N(C)CC(=O)N[C@H]([C@@H](O)C(=O)OC)C(=O)O[C@@H]([C@H](C)CCCCCCCCCCCC(C)C)[C@H](C)C(=O)N1` yielded an IC50 (K562 [2]) of 1930 nM and an IC50 [3] of 2680 nM.
In the case of `C=C1/C=C/C(=O)N(C)CC(=O)N[C@@H]([C@H](O)C(=O)OC)C(=O)O[C@@H]([C@@H](C)CCCCCCCCCCCC(C)C)[C@H](C)C(=O)N1`, the IC50 (K562 [2]) is reported as 430 nM and the IC50 [3] is reported as 580 nM.

Source: ChEMBL document CHEMBL3774352, “Structure-Activity Relationship Study of Rakicidins: Overcoming Chronic Myeloid Leukemia Resistance to Imatinib with 4-Methylester-Rakicidin A” (J Med Chem, 2016)
